The text below walks through data of patent publication US8846951B2 (AbbVie Inc., priority 2009, dated 2014).

Assay [1] addresses T1, human serotonin 5-HT2c receptor (Homo sapiens, UniProt P28335).
T1 construct: expressed in transfected cells; host or cells: CHO cells (membrane homogenates)
T1 sequence (P28335 33-458): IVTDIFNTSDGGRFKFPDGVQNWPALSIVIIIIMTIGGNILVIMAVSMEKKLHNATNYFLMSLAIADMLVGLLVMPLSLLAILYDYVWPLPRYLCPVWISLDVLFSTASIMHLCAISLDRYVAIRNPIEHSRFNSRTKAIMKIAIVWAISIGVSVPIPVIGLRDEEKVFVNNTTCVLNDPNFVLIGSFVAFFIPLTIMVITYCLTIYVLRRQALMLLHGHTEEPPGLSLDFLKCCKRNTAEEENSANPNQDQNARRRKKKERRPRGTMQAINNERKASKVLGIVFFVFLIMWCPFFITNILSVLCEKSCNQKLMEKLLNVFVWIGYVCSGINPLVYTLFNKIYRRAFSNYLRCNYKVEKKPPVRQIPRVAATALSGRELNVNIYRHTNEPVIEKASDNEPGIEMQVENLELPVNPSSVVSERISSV
Nature of the assay: Human 5-HT2C receptor radioligand binding assay (agonist site, [125I]DOI). The note with it: 5-HT2c agonist site; transfected CHO cell membranes; 0.2 nM [125I](±)DOI. Here is the method: (i) Human 5-HT2C Receptor Radioligand Binding Assay
Affinity of compounds for the agonist site of the […], receptor in transfected CHO cells was determined in a radioligand binding assay essentially as described by Bryant, H. U., et al., Life Sciences (1996) 59(15), 1259-1268.

A further assay deals with T2, h-5-HT6 receptor (Homo sapiens, UniProt P50406).
T2 construct: expressed in transfected cells; host or cells: HEK293 cells (membranes)
Nature of the assay: Human 5-HT6 receptor radioligand binding assay (HEK293 membranes, [3H]-LSD). The note with it: HEK293 membranes expressing h-5-HT6 receptor, 1 nM [3H]-LSD; geometrical mean; read-out: Ki (5-HT6 Agonist Site Radioligand Binding). As to the method:
(v) Human 5-HT6 Receptor Radioligand Binding Assay
Preparation of Membranes by Ultrasonic Treatment and Differential Centrifugation
Cells from stable clonal cell lines expressing the corresponding receptor (5-HT6) were washed with PBS (without Ca^++, Mg^++) and harvested in PBS with 0.02% EDTA. The cells were collected by centrifugation at 500 g for 10 minutes at 4° C., washed with PBS and centrifuged (500 g, 10 minutes at 4° C.). The pellets were stored at −80° C. until use. For membrane preparation, the thawed cell pellet was resuspended in ice-cold sucrose buffer (0.25 M sucrose, 10 mM HEPES (pH 7.4), 1 mM phenylmethylsulfonyl fluoride (PMSF) in DMSO, 5 μg/ml Pepstatin-A, 3 mM EDTA, 0.025% Bacitracin) and homogenized with a Branson Sonifier W-250 (Settings: Timer 4; Output Control 3; Duty Cycle constant; 2 to 3 cycles). Cell disruption was checked with the aid of a microscope. Remaining unbroken cells were pelleted at 1,000 g for 10 minutes at 4° C. The sucrose buffer supernatant was then centrifuged at 60,000 g for 1 hour at 4° C. (Beckman Ultracentrifuge XL 80). The pellet was resuspended in 30 mL of ice-cold Tris buffer (20 mM TRIS (pH 7.4), 5 μg/mL Pepstatin A, 0.1 mM PMSF, 3 mM EDTA) by pipetting through a 10 mL serological pipette and centrifuged for 1 hour at 4° C. at 60,000 g. A final resuspension was performed in a small volume of ice-cold Tris buffer (see above) by pressing through a serological pipette followed by ultrasonic treatment with a Branson Sonifier W-250 (Settings: Timer 1; Output Control 3; Duty Cycle constant; 1 cycle). Protein concentration was determined (BCA-Kit; Pierce) and aliquots stored at −80° C. or in liquid nitrogen for long-term storage.
Receptor Binding Experiments
All receptor binding experiments were carried out in the corresponding assay buffer in a total volume of 200 μL in the presence of various concentrations of test compound (10^−5 M to 10^−9 M, tenfold serial dilution, duplicate determinations). The assays were terminated by filtration on polyethylenimine (PEI 0.1% or 0.3%) presoaked Packard Unifilter Plates (GF/C or GF/B) with a Tomtec MachIII U 96 well-plate harvester. After the plates had been dried for 2 hours at 55° C. in a drying chamber scintillation cocktail (BetaPlate Scint; PerkinElmer) was added. Radioactivity was measured in a Microbeta Trilux two hours after the addition of the scintillation mixture.
5-HT6 Receptor Binding Assay
HEK293 cells stably expressing the h-5-HT6 receptor (NCBI Reference Sequence XM 001435) were cultured in RPMI1640 medium supplemented with 25 mM HEPES, 10% fetal calf serum and 1-2 mM glutamine. The membrane preparation was performed as described above. […] On the day of the assay, the membranes were thawed, diluted in assay buffer (50 mM Tris-HCl, 5 mM CaCl2, 0.1% ascorbic acid, 10 μM pargyline, pH 7.4) to a concentration of 8 μg protein/assay and homogenized by gentle vortexing. […] Non-specific binding was defined with 1 μM methiothepin. The binding reaction was carried out for 3.5 hours at room temperature. During the incubation, the plates were shaken on a plate shaker at 100 rpm and terminated by filtration on Packard Unifilter GF/C (0.1% PEI) plates, followed by 2 wash cycles with ice-cold 50 mM Tris-HCl, 5 mM CaCl2.
Data derived from liquid scintillation counting were analyzed by iterative non-linear regression analysis with the use of the Statistical Analysis System (SAS): a program similar to “LIGAND” as described by Munson and Rodbard (Anal. Biochem. 1980, 107, 220-239). Fitting was performed according to formulae described by Feldman (Anal. Biochem. 1972, 48, 317-338). IC50 and Ki values were expressed as geometrical mean.

For the next assay, the target named is T3, 5-HT6 receptor (Homo sapiens, UniProt P50406).
T3 construct: expressed in transfected cells; host or cells: CHO cells (membrane homogenates)
Nature of the assay: Human 5-HT6 receptor radioligand binding assay (transfected CHO cells, [3H]LSD). The note with it: transfected CHO cell membranes, 2 nM [3H]LSD. Here is the method:
(vi) Human 5-HT6 Receptor Radioligand Binding Assay
Affinity of compounds for the agonist site of the 5-HT6 receptor in transfected CHO cells was determined in a radioligand binding assay essentially as described by Monsma, F. J., et al., Mol. Pharmacol. (1993) 43, 320-327. […] Nonspecific binding was determined in the presence of 100 μM serotonin. The amount of binding was determined by radioactivity quantitation with scintillation counter. IC50s were determined from a standard curve of the reference compound serotonin. Ki's as shown in Table 7 were derived from the IC50s in the standard method.

In assay [2] the target is T4, 5HT2C receptors (Homo sapiens, UniProt P28335).
T4 sequence (P28335 33-458): T1 sequence (P28335 33-458)
Nature of the assay: Human 5-HT2C functional assay in CHO-K1 cells (96-well, calcium, FLIPR). Also noted: expressed in transfected cells. As to conditions: 5-HT2c agonist activity, CHO-K1 cells stably transfected. In kind it is cell-based. As to the method: (iv) Human 5-HT2C Functional Assay in CHO-K1 Cells
Functional activity was determined by testing the effect of the compounds on intracellular calcium levels in CHO-K1 cells stably transfected with the human 5-HT2C receptor. Cells were seeded into 96-well plates at 60,000 cells/well and grown overnight in tissue culture medium (UltraCHO™ (Lonza), containing 1% dFCS, 250 μg/mL Zeocin, 400 μg/mL Geneticin) at 37° C. and 5% CO2. Growth medium was replaced by medium without dFCS for overnight incubation. Cells were loaded with a fluorescent calcium-sensitive dye in the presence of probenicid according to the manufacturer's protocol (FLIPR Ca4 Assay kit, Molecular Devices). Serial compound dilutions (final concentrations 10^−10 to 10^−5 M) were added to the cells and the maximum calcium response was determined using a FLIPR instrument (Molecular Devices). Concentration-response curves were fitted using a four-parameter logistic equation (GraphPad Prism). The concentration at which the compound exerts half its maximal effect is named the ‘effective concentration 50’ or ‘EC50’ and is listed in Table 5.

For assay [3], the target named is T4, 5HT2C receptors. Nature of the assay: Human 5-HT2C functional assay in 1321N1 cells (intracellular calcium, FLIPR). In kind it is cell-based. Also noted: expressed in transfected cells; host or cells: 1321N1 cells. As to conditions: 5-HT2c agonist activity, maximum calcium response. An outline of the steps:
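Intracellular calcium (Fluo-4, FLIPR peak response) was measured in stably transfected human 5-HT2C 1321N1 cells after overnight serum-free culture. Compounds were applied at final 10^−10 to 10^−5 M either alone or together with 10^−9 M serotonin. Half-maximal effect concentration was derived by four-parameter logistic fitting.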

T3 sequence (P50406 whole entry): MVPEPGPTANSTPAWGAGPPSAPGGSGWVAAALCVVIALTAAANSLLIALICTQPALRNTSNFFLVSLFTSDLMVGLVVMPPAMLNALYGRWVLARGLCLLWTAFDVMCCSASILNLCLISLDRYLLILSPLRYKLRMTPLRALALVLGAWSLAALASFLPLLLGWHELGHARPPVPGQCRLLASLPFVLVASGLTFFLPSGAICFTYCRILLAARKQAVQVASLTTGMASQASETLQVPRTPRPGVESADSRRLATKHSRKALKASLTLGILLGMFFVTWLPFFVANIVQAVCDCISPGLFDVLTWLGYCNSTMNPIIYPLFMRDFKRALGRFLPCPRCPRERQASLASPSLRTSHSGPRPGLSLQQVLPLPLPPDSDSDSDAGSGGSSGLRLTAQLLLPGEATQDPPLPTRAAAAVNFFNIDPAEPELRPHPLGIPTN
T2 sequence (P50406 whole entry): as above

In the case of `O=S(=O)(c1cccc(F)c1)N1Cc2ccccc2[C@@H]2CN(Cc3ccccc3)C[C@H]2C1` (relative stereo) [Example 8, Trans-2-benzyl-5-(3-fluorophenylsulfonyl)-1,2,3,3a,4,5,6,10b-octahydrobenzo[c]pyrrolo[3,4-e]azepine], the inhibition constant Ki (in general, a dissociation constant, usually derived from enzyme kinetics or from competition with a known ligand) in assay [1] came to 93 nM; on h-5-HT6 receptor it was 40.3 nM; on 5-HT6 receptor, 28 nM. Further, the EC50 (in general, the concentration that produces a half-maximal response) at 5HT2C receptors [2] is more than 1000 nM.

As to `O=S(=O)(c1cccc(Br)c1)N1Cc2ccccc2[C@@H]2CN(Cc3ccccc3)C[C@H]2C1` (relative stereo) [Example 12, Trans-2-benzyl-5-(3-bromophenylsulfonyl)-1,2,3,3a,4,5,6,10b-octahydrobenzo[c]pyrrolo[3,4-e]azepine], the values for the Ki (in assay [1]; on 5-HT6 receptor) were 320 nM and 57 nM, respectively. In addition, the 50% effective concentration (EC50) at 5HT2C receptors [3] is more than 10000 nM.

For the molecule `O=S(=O)(c1ccc(F)c(Cl)c1)N1Cc2ccccc2[C@@H]2CN(Cc3ccccc3)C[C@H]2C1` (relative stereo) [Example 14, Trans-2-benzyl-5-(3-chloro-4-fluorophenylsulfonyl)-1,2,3,3a,4,5,6,10b-octahydrobenzo[c]pyrrolo[3,4-e]azepine], the inhibition constant (Ki) worked out at 590 nM in assay [1] and 250 nM at 5-HT6 receptor. Besides, the EC50 at 5HT2C receptors [3] is more than 10000 nM.

Turning to `O=S(=O)(c1cccc(C(F)(F)F)c1)N1Cc2ccccc2[C@@H]2CN(Cc3ccccc3)C[C@H]2C1` (relative stereo) [Example 16, Trans-2-benzyl-5-(3-(trifluoromethyl)phenylsulfonyl)-1,2,3,3a,4,5,6,10b-octahydrobenzo[c]pyrrolo[3,4-e]azepine], the figures for the Ki (in assay [1]; on 5-HT6 receptor) were 560 nM and 140 nM, respectively. At 5HT2C receptors [3], the EC50 was more than 10000 nM.

For `O=S(=O)(c1cccc(Cl)c1)N1Cc2ccccc2[C@@H]2CN(Cc3ccccc3)C[C@H]2C1` (relative stereo) [Example 20, Trans-2-benzyl-5-(3-chlorophenylsulfonyl)-1,2,3,3a,4,5,6,10b-octahydrobenzo[c]pyrrolo[3,4-e]azepine], the Ki in assay [1] turned out to be 260 nM; at 5-HT6 receptor, 43 nM. On 5HT2C receptors [3], the EC50 was more than 10000 nM.

In the case of `O=C1NCc2ccccc2[C@@H]2CN(S(=O)(=O)c3cccc(Cl)c3Cl)C[C@@H]12` (relative stereo) [Example 39, Trans-2-(2,3-dichlorophenylsulfonyl)-1,2,3,3a,5,6-hexahydrobenzo[c]pyrrolo[3,4-e]azepin-4(10bH)-one], the results for the inhibition constant Ki at h-5-HT6 receptor and on 5-HT6 receptor were 207 nM and 275 nM, respectively.
